The values below come from patent publication US12016834B2, “Small molecule inhibitors of SLC25A1” (GEORGETOWN UNIVERSITY, priority 2017, dated 2024).

In experiment [1] the test system is MP2 cells. In words: Seahorse OCR and ATP in patient-derived cells. The note with it: monolayer, chronic treatment for several passages (FIG. 6B). It counts as cell-based, human. As to the method: Primary lung cancer cultures and GMSC. Surgical samples were minced and digested with dispase (50 U/ml) in DMEM media containing 5% serum for 1 hour. Pleural effusions were centrifuged, washed once in PBS, and then plated. All primary cultures were initially grown on 6-well plates pre-coated with 2% Geltrex (Life Technologies; Carlsbad, CA) and 1% Maxgel (Sigma Aldrich). Maxgel is a humanized matrix, native and non-denatured. The inclusion of Maxgel in the system enhanced the initial attachment of primary tumor cells, partially because Maxgel provides a more natural ECM conformational substrate. The day after plating, the media containing unattached cells was typically transferred to a fresh plate, in most of cases generating new attached cultures. The media (Stem Cell Media) is the DMEM/F12 (Thermo-Fisher #11320-033 basic media) supplemented with the following components: Insulin-Transferrin-Sodium selenite (ITS; 1:1000; Sigma #11884); glutamine (Thermo-Fisher) to 4 mM final concentration; sodium pyruvate (Thermo-Fisher) to 2 mM final concentration; rock inhibitor (Y-27632) 10 micrograms/mL; 2-5% Knock Out Serum Replacement (KNOSR, Thermo-Fisher #10828-028); 0.5% ALBUMAX-(Lipid enriched BSA; Thermo-Fisher #11020-021); N2 Supplement (Thermo-Fisher) 1:250; EGF (5 ng/ml; Peprotech); hFGF (20 ng/ml; Bechman); and IGF-1 (Peprotech; 10-20 ng/ml).
Seahorse extracellular flux analyzer experiments. Cells derived from spheres or monolayer cultures were dissociated and plated overnight at 12,000 cells/well in DMEM with 10% FBS, 5 mM glucose, 1 mM pyruvate, 2 mM glutamine.
For the mitochondrial stress test, the media was replaced with DMEM without FBS or bicarbonate, containing 5 mM glucose, 1 mM pyruvate, 2 mM glutamine and placed in a CO2 free incubator at 37° C. for 1 hour, and then transferred to the Xf96 extracellular flux analyzer (Agilent; Santa Clara, CA). The program consisted of 3 measurements of OCR/ECAR before the injection of each drug: oligomycin (0.5 μM final concentration), FCCP (2 μM) and rotenone/antimycin (0.5 μM of each). For the glycolysis stress test, cells were plated overnight as above, and the media was washed twice the following day with DMEM without FBS, bicarbonate, glucose, glutamine or pyruvate, and incubated in this media in a CO2 free incubator with/without drug treatments at 37° C. for 4 hours. There were 3 measurements of OCR/ECAR before each injection: glucose (10 mM final concentration), oligomycin (0.5 […] (50 mM). For the analysis of glutamine oxidation, the protocol was the same as the glucose stress test, but with glutamine being the only compound injected (final concentration 4 mM) and OCR/ECAR measured for 60 minutes. When spheres were analyzed, they were dissociated with StemPro® Accutase® (Thermo Scientific; Waltham, MA) and plated under the same conditions as above as for the monolayers the day before the assay (H1299 spheres), or in stem cell media (See Stem Cell Media) with the wells coated in 15 μL of 2% geltrex diluted in DMEM:F12 (Thermo Scientific). The results were normalized to cell number.

The subject of the next experiment is MP3 cells. Put plainly: Viability (Crystal Violet) and drug interaction (R index). The note with it: single drug, 5 days, monolayer. Type of experiment: cell-based, human. As to the method:
(§1) Cellular proliferation and cytotoxicity assays. […] The cells were then washed with 1×PBS and fixed with cold 100% methanol at−20° C. for 20 minutes. Methanol was washed off and the cells were stained with 0.5% crystal violet dissolved in 25% methanol and water at 4° C. for 20 minutes. The staining was washed off using deionized (DI) water and the plate was dried overnight. On the second day, 100 mM sodium citrate in 50% ethanol and 50% water was added to the wells and absorbance at 550 nm was measured and corrected with readings at 405 nm. In other experiments, cell viability was assessed by trypan blue exclusion and visual count of the live cells was performed.
(§2) Statistical methods for drug interactions. […] Sexp/Sobs=1.0 denotes an additive interaction, while >1.0 denotes a synergistic interaction. R index values approaching 2.0 are indicative of strong synergy.

The test system of a further experiment is MP1 cells. The experiment is described as above. Type of experiment: cell-based, human. The note with it: single drug, 5 days, monolayer. The method, then: as §1, §2
Experiment [2] relates to MP2 cells. The description is as above. It counts as cell-based, human. The note with it: single drug, 5 days, monolayer. As to the method: as §1, §2
In the next experiment the test system is H1299 cells. In words: Sphere forming / self-renewal assay. Type of experiment: cell-based, human. The note with it: one week after treatment; BTA 2 mM, CTPI 1 mM (FIG. 9F). As to the method:
Growth of monolayers and sphere cultures. Tumor cell lines were grown as monolayers in complete Dulbecco's Modified Eagle's Media (DMEM, Gibco; supplemented with 10% fetal bovine serum and 1% of 5,000 units/mL of penicillin-streptomycin (pen-strep), Gibco). To generate spheroids, cells were grown in Falcon bacteriological petri dishes coated with 2% poly(2-hydroxyethyl methacrylate) dissolved in 100% ethanol. The growth media was DMEM/F12 (Gibco) supplemented with 20 ng/mL of epidermal growth factor (EGF), 5 ng/mL of fibroblast growth factor, 0.375% 100× N2 supplements (Gibco), and 1% pen-strep. Monolayer cells were dissociated using 0.25% trypsin-edta (Gibco), whereas spheroid cultures were dissociated using StemPro Accutase (Gibco). Patient derived cell lines were grown as described below in the primary lung cultures section.
Self-renewal assays. Tumor cells cultured as spheroids were dissociated and diluted in 2× sphere media containing 1% methyl cellulose, which was previously dissolved in cold DMEM/F12 media. Either 200, 500, or 1000 cells were then plated in each 96 well and were incubated in the presence or absence of drugs, as indicated. The spheres were allowed to form for a period of a week to ten days, at which point they were counted. Six biological replicates were used for quantification of the results.

The target in the next experiment is SLC25A1 (Homo sapiens, UniProt P53007). The note with it: cited from earlier work.
SLC25A1, sequence (P53007 14-311, species assumed): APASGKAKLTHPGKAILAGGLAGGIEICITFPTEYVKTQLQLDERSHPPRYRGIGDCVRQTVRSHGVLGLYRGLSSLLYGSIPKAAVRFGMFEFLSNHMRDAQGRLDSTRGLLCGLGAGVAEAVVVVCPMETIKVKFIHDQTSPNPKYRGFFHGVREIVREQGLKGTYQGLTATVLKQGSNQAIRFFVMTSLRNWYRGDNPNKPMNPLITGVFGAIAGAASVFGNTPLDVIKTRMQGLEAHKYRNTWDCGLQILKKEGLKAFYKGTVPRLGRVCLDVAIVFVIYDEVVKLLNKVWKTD

For `C=CC(=O)Nc1cc(Nc2nccc(-c3cn(C)c4ccccc34)n2)c(OC)cc1N(C)CCN(C)C` [AZD9291, osimertinib, reference compound], the “mitochondrial respiration after chronic drug treatment” value in the experiment on MP2 cells [1] is “dramatic shift towards mitochondrial respiration”. Moreover, the “response to drug (viability)” value was “complete insensitivity” in the experiment with MP3 cells, “minimal response” with MP1 cells and “minimal response” in the experiment with MP2 cells [2].

`O=C(O)c1cccc(C(=O)O)c1C(=O)O` [BTA, 1,2,3, Benzenetricarboxylic acid]: the sphere forming capacity result in the experiment on H1299 cells is recorded as “reduced sphere forming capacity”. The “concentration required for inhibition of SLC25A1” value at SLC25A1 is on record as “millimolar concentration”.
